Reference: US6989396B2, “Tropane alkaloid multidrug resistance inhibitors from Erythroxylum pervillei and use of the same” (The Board of Trustees of the University of Illinois, priority 2001, dated 2006)
Values after ≈ are worked out from the molar mass of the structure shown. Like-named read-outs stand apart in the source and are kept apart here.

Key:
CAKI-1, renal = assay: In vitro multidrug resistance modulation (DINIB synergy): CAKI-1; assay type: cell-based, human; settings: increase of cytotoxicity of DINIB 1 × 10^−4 M; modulator μg/mL: verapamil 12.5, cyclosporin A 6.3, pervilleine B 12.5, C 3.1, D 50.0, F 25.0; <25 insignificant, >100 strong synergy
Description: (§1) Alkaloids 5–7 and 9 were further evaluated for their efficacy as potential modulators of P-glycoprotein. This assay assessed the ability of these test compounds to increase the cytotoxicity of an agent of the MDR phenotype {4,9-dihydro-3-iso-butyl-2-methyl-1-(p-nitrophenacyl)-4,9-dioxo-1H-naphth[2-3-d]imidazolium bromide (DINIB)}, compared with an agent not of the MDR phenotype (5-flurouracil), used as a negative control (73, 74).
(§2) In vitro multidrug resistance assay.

HCT-15, colon = assay: In vitro multidrug resistance modulation (DINIB synergy): HCT-15; assay type: cell-based, human; settings: increase of cytotoxicity of DINIB 1 × 10^−4 M; modulator μg/mL: verapamil 12.5, cyclosporin A 6.3, pervilleine B 12.5, C 3.1, D 50.0, F 25.0; <25 insignificant, >100 strong synergy
Description: as §1, §2

LOX IMVI, melanoma = assay: In vitro multidrug resistance modulation (DINIB synergy): LOX IMVI; assay type: cell-based, human; settings: increase of cytotoxicity of DINIB 1 × 10^−4 M; modulator μg/mL: verapamil 12.5, cyclosporin A 6.3, pervilleine B 12.5, C 3.1, D 50.0, F 25.0; <25 insignificant, >100 strong synergy
Description: as §1, §2

UO-31, renal = assay: In vitro multidrug resistance modulation (DINIB synergy): UO-31; assay type: cell-based, human; settings: increase of cytotoxicity of DINIB 1 × 10^−4 M; modulator μg/mL: verapamil 12.5, cyclosporin A 6.3, pervilleine B 12.5, C 3.1, D 50.0, F 25.0; <25 insignificant, >100 strong synergy
Description: as §1, §2

[1] = tested on: SKVLB (ovarian adenocarcinoma, multidrug resistance); assay: Multidrug resistance inhibition in SKVLB (pGp +ve); assay type: cell-based, human; settings: Homo sapiens
Lu1, lung cancer = assay: In vitro cytotoxicity, human tumor panel: Lu1; assay type: cell-based; settings: Homo sapiens, read-out: ED50 Lu1
Method: (§3) Cytotoxicity assay. Compounds 1–9 were evaluated for cytotoxic activity against a panel of human cancer cell lines, including KB-V1 in the presence and absence of VLB, according to an established protocol (68).

[2] = tested on: KB, oral epidermoid carcinoma; assay: In vitro cytotoxicity, human tumor panel: KB; assay type: cell-based; settings: Homo sapiens, read-out: ED50 KB
Method: as §3

BC1, breast cancer = assay: In vitro cytotoxicity, human tumor panel: BC1; assay type: cell-based; settings: Homo sapiens, read-out: ED50 BCI
Method: as §3

KB-3 cells = assay: Growth inhibitory potential (sulforhodamine B cell survival assay): KB-3; assay type: cell-based; settings: Homo sapiens, KB3, 72 h, read-out: IC50 KB-3
Method: (§4) One part of a natural product drug discovery program involves monitoring the potential of plant extracts to reverse multiple drug resistance. […] To investigate the potential of plant extracts or compounds to reverse multidrug-resistance, KB-V1 cells are treated with different concentrations of plant extracts or compounds in the presence (1 μg/ml) or absence of vinblastine.
(§5) Cytotoxic potential. The cytotoxic potential of test substances with KB-3, KB-V1 and KB-8-5 cells was determined as described previously (24). Briefly, various concentrations of test compounds (dissolved in 10 μl of 10% DMSO) were transferred to 96-well plates, and 190 μl aliquots of cell suspensions (5×10^4 cells/ml) were added to each well. The plates then were incubated for 72 hours at 37° C. (100% humidity with a 5% CO2 atmosphere in air), and 100 μl of cold 20% aqueous trichloroacetic acid were added to the growth medium in each well to fix the cells. The cultures were incubated at 4° C. for 30 minutes, washed, air-dried, stained with sulforhodamine B solution, and washed with 1% acetic acid. Finally, 200 μl of 10 mM Tris base were added to each well and the optical densities were determined at 515 nm utilizing an ELISA plate reader. In each case, a zero-day control was performed by adding an equivalent number of cells to several wells and incubating at 37° C. for 30 minutes, and processing as described above. Optical density values obtained with the zero-day control were subtracted, and cell survival, relative to control (solvent-treated) cultures, was calculated. The cytotoxic potential of the compounds with CEM and CEM/VLB100 cells was determined as described by Beck et al. (30). Cells were grown in 24-well plates at a density of 5–6×10^5 cells/ml. At 48 hours, the cell number was determined using a Coulter Counter, with a channelizer to distinguish cells from debris.

KB-V1 cells [3] = assay: Reversal of MDR, cell survival assay: KB-V1 with or without vinblastine; assay type: cell-based, human
Method: as §4
as §5, with “Finally, 200 μl of 10 mM Tris base were added to each well and the optical densities were determined at 515 nm utilizing an ELISA plate reader.” left out

Col2, colon cancer = assay: In vitro cytotoxicity, human tumor panel: Col2; assay type: cell-based; settings: Homo sapiens, read-out: ED50 Col2
Method: as §3

KB-V1, drug resistant KB = assay: In vitro cytotoxicity, human tumor panel: KB-V1 with or without vinblastine; assay type: cell-based; settings: for IC50: Homo sapiens, KB-V1, drug-resistant KB assessed in the absence of vinblastine, read-out: ED50 KB-V1−; for ED50 KB-V1+: drug resistant KB assessed in presence of vinblastine (1 μg/mL)
Method: as §3

[4] = tested on: SW626, human ovarian adenocarcinoma; assay: In vitro cytotoxicity, human tumor panel: SW626; assay type: cell-based; settings: SW626, read-out: ED50 SW626
Method: as §3

[5] = tested on: SKOV3 (ovarian adenocarcinoma); assay: Cytotoxicity in ovarian adenocarcinoma SKOV3 (pGp -ve); assay type: cell-based; settings: Homo sapiens, SK-OV-3, read-out: IC50 SKOV3 (pGp − ve)
Method: as §3

KB-V1 cells [6] = assay: In vivo hollow fiber test: KB-V1; set-up: species or system NCr nu/nu mice
Method: In vivo hollow fiber test. […] Confluent monolayers of KB-3, KB-V1 or KB-8-5 cells were harvested, collected by centrifugation and resuspended in conditioned medium at a concentration of 7.5×10^5 cells/ml.
Test compounds were administrated once daily by intraperitoneal injection from day 3–6 after implantation. Body weights were measure daily.
After incubating at 37° C. for 4 hours, the culture medium was aspirated and the samples were washed twice with normal saline containing 2.5% protamine sulfate solution by overnight incubation at 4° C. […] The formazan was extracted from each sample with DMSO (250 μl/well) for 4 hours at room temperature on a rotation platform.

[7] = tested on: LNCaP, hormone-dependent prostate cancer; assay: In vitro cytotoxicity, human tumor panel: LNCaP; assay type: cell-based; settings: Homo sapiens, LNCaP, read-out: ED50 LNCaP
Method: as §3

[8] = summation of single-agent inhibitions

Row | Compound | synergy value at a 95% confidence level, CAKI-1 (CAKI-1, renal) | synergy value at a 95% confidence level, HCT-15 (HCT-15, colon) | synergy value at a 95% confidence level, LOX IMVI (LOX IMVI, melanoma) | synergy value at a 95% confidence level, UO-31 (UO-31, renal) | IC50 (Lu1, lung cancer) [µg/mL] | IC50 [2] [µg/mL] | IC50 (BC1, breast cancer) [µg/mL] | IC50 (Col2, colon cancer) [µg/mL] | IC50 (KB-V1, drug resistant KB) [µg/mL] | ED50 KB-V1+ (KB-V1, drug resistant KB) [µg/mL] | IC50 [4] [µg/mL] | IC50 [7] [µg/mL] | also measured
1 | cyclosporin A [reference compound] | 273.3 | 719.1 | 72.9 | 642.1 |  |  |  |  |  |  |  |  | 
2 | COc1cc(C=CC(=O)O[C@H]2C[C@@H]3C[C@H](OC(=O)c4cc(OC)c(OC)c(OC)c4)C[C@H]2N3C)cc(OC)c1OC [Compound 5, 3α-(3,4,5-trimethoxybenzoyloxy)-6β-(3,4,5-trimethoxycinnamoyloxy)tropane] | 268.1 | 607.6 | 33.3 | 248.7 | 3.1 (≈ 5.42 µM) | > 20 | 9.4 (≈ 16.4 µM) | 1.3 (≈ 2.27 µM) | 8.8 (≈ 15.4 µM) | 0.1 | 3.2 (≈ 5.6 µM) | 1 (≈ 1.75 µM) | IC50 ([1]; read-out: IC50 BSKVLB (pGp + ve)): > 10 µM; IC50 ([1]; read-out: IC50 SKVLB (pGp + ve), addition of adriamycin): 0.12 µM; IC50 (KB-3 cells): > 35 µM; IC50 (KB-V1 cells [3]; Homo sapiens, KB-V1, absence of vinblastine, 72 hours, read-out: IC50 KB-V1 (−)): 15 µM; Ratio of IC50 values [KB-V1 (−)]/[KB-V1 (+)] (KB-V1 cells [3]; vinblastine 1 μg/ml): 88; IC50 [5]: 3.8 µM; growth inhibition, administered as single agents (KB-V1 cells [6]; KB-V1 or KB-8-5 cells in hollow fibers implanted into NCr nu/nu mice): not significantly inhibited; Calculated inhibition (vinblastine + reversing agent as single agents), KB-V1, i.p. site (KB-V1 cells [6]; [8]): 9.4%; Calculated inhibition (vinblastine + reversing agent as single agents), KB-V1, s.c. site (KB-V1 cells [6]; [8]): 3.8%; Observed inhibition from coadministration with vinblastine, KB-V1, s.c. site (KB-V1 cells [6]; vinblastine 250 μg/kg + reversing agent 0.136 mmol/kg): 1.4 (P = 0.87) %; Observed inhibition from coadministration with vinblastine, KB-V1, i.p. site (KB-V1 cells [6]; vinblastine 250 μg/kg + reversing agent 0.136 mmol/kg, i.p. injection once daily days 3–6, listed as pervilleine B): 66.8 (P < 0.0001) %; Growth inhibition, single agent, KB-V1, s.c. site (KB-V1 cells [6]; vinblastine 250 μg/kg, reversing agents 0.136 mmol/kg, i.p. injection once daily days 3–6): 0%
3 | COc1cc(C=CC(=O)O[C@@H]2C[C@@H]3[C@@H](OC(=O)C=Cc4cc(OC)c(OC)c(OC)c4)[C@@H](O)[C@H](C2)N3C)cc(OC)c1OC [Compound 7, 3α,6β-di-(3,4,5-trimethoxycinnamoyloxy)-7β-hydroxytropane] | 387.9 | 758.3 | 13.2 | 562.7 | 15.1 (≈ 24.6 µM) | 11 (≈ 17.9 µM) | 15 (≈ 24.4 µM) | 4.9 (≈ 7.98 µM) | 9 (≈ 14.7 µM) | 0.2 | 6.5 (≈ 10.6 µM) | 14.1 (≈ 23 µM) | melting point: 59 to 61 °C
